Measurements taken from patent publication US20170165274A1, “COMPOSITION” (SHIELD TX (UK) LTD., priority 2014, published 2017).
Like-named read-outs stand apart in the source and are kept apart here.

Experiments:
grazed skin [1] = assay: Short term exposure on grazed skin in two volunteers (irritation); conditions: 10^−4 M, short term (5 mins) exposure
nasal mucosa [2] = assay: Contact with the nasal mucosa (irritation); conditions: contact for 10 minute periods
[3] = Stability of iron hydroxypyrones in liquid as a function of pH; assay type: physicochemical; conditions: acid pH
Description: There is another advantage of a liquid formulation of a ferric tri (hydroxypyrone) in that there is no need to have an acidified preparation for either efficacy or stability. […] This is a significant difference between ferric pyrones in solution and ferrous salts used in medicine.
Unlike the ferrous products a maximum stability of the liquid ferric pyrones and ferrous products containing maltol is achieved in the pH range 5.5-8. With this knowledge the formulations developed require ingredients suited to this constraint and also standardisation of colour and taste for patient acceptability. At higher concentrations of active a suspension formulation may be preferred. Furthermore the excipients must not reduce the excellent bio-availability of iron from iron pyrone formulations.

grazed skin [4] = conditions: human, in vivo
nasal mucosa [5] = conditions: in vivo

O=S(=O)([O-])[O-].[Fe+2] [FeS04, iron sulphate]
Irritation of grazed skin (grazed skin [1]): did not induce irritation | Irritancy to nasal mucosa (nasal mucosa [2]): neither iron tri-maltol or iron sulphate in contact with the nasal mucosa for 10 minute periods proved to be irritant

Cc1occc(=O)c1[O-].Cc1occc(=O)c1[O-].Cc1occc(=O)c1[O-].[Fe+3] [Fe[Maltol]3, ferric trimaltol]
Stability behaviour in liquid [3]: disproportionates at acid pH values | Irritation of grazed skin (grazed skin [4]): did not induce irritation | Irritancy to nasal mucosa (nasal mucosa [5]): neither iron tri-maltol or iron sulphate in contact with the nasal mucosa for 10 minute periods proved to be irritant
